{"source": "patent US20160354320A1", "about": "“DRUG LOADED POLYMERIC NANOPARTICLES AND METHODS OF MAKING AND USING SAME” (BIND Therapeutics, Inc., priority 2011, published 2016)", "experiment": "Water solubility of cabazitaxel", "type": "physicochemical", "from_the_text": "Drug solubilizer (Tween 80) may be added after the fine emulsion has been quenched. Tween 80 is able to effectively solubilize CTXL crystals and allow for the isolation of nanoparticles from unencapsulated CTXL by preventing the formation of CTXL crystals, and/or by effectively solubilizing any CTXL crystals that form when the fine emulsion is quenched. A standard set of nanoemulsion conditions are as follows: […]", "data": [{"substance": "cabazitaxel [CTXL]", "values": [{"measurement": "water solubility", "result": "very low water solubility"}]}]}
